{"source": "patent US20100298141A1", "about": "“SUBSTITUTED PYRIDINE N-OXIDE HERBICIDES” (E. I. DU PONT DE NEMOURS AND COMPANY, priority 2007, published 2010)", "key": {"johnsongrass": {"test_system": "johnsongrass", "assay": "Test C pre-/postemergence test", "type": "in vivo, Sorghum halepense", "settings": "Preemergence", "outline": "(§1)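 Seeds were planted and treated preemergence with test chemical in a non-phytotoxic solvent mixture containing surfactant. Postemergence applications of the same formulation went onto plants 2 to 18 cm tall (1- to 4-leaf stage). A dash marks no test result.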"}, "soybean": {"test_system": "soybean", "assay": "Test C pre-/postemergence test", "type": "in vivo, Glycine max", "settings": "Preemergence", "outline": "as §1"}, "cocklebur": {"test_system": "cocklebur", "assay": "Test C pre-/postemergence test", "type": "in vivo, Xanthium strumarium", "outline": "as §1"}, "duck salad": {"test_system": "duck salad", "assay": "Test C flooded paddy test", "type": "in vivo, Heteranthera limosa", "settings": "Flood", "outline": "(§2)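 Under a constant 3 cm flood, test compounds went directly into the paddy water. Following 13 to 15 days of greenhouse growth, treated species and controls were compared by eye.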"}, "green foxtail": {"test_system": "green foxtail", "assay": "Test C pre-/postemergence test", "type": "in vivo, Setaria viridis", "settings": "Preemergence", "outline": "as §1"}, "woolly cupgrass": {"test_system": "woolly cupgrass", "assay": "Test C pre-/postemergence test", "type": "in vivo, Eriochloa villosa", "settings": "Preemergence", "outline": "as §1"}, "corn": {"test_system": "corn", "assay": "Test C pre-/postemergence test", "type": "in vivo, Zea mays", "outline": "as §1"}, "giant foxtail": {"test_system": "giant foxtail", "assay": "Test C pre-/postemergence test", "type": "in vivo, Setaria faberii", "settings": "Preemergence", "outline": "as §1"}, "downy brome": {"test_system": "downy brome", "assay": "Test C pre-/postemergence test", "type": "in vivo, Bromus tectorum", "outline": "as §1"}, "wild oat": {"test_system": "wild oat", "assay": "Test C pre-/postemergence test", "type": "in vivo, Avena fatua", "settings": "Preemergence", "outline": "as §1"}, "Italian ryegrass": {"test_system": "Italian ryegrass", "assay": "Test C pre-/postemergence test", "type": "in vivo, Lolium multiflorum", "settings": "Preemergence", "outline": "as §1"}, "catchweed bedstraw": {"test_system": "catchweed bedstraw", "assay": "Test C pre-/postemergence test", "type": "in vivo, Galium aparine", "settings": "Preemergence", "text": "Seeds of plant species selected from blackgrass (Alopecurus myosuroides), downy brome (Bromus tectorum), green foxtail (Setaria viridis), Italian ryegrass (Lolium multiflorum), wheat (Triticum aestivum), wild oat (Avena fatua), catchweed bedstraw (Galium aparine), Russian thistle (Salsola kali), […] (Cynodon dactylon), Surinam grass (Brachiaria decumbens), cocklebur (Xanthium strumarium), corn (Zea mays), crabgrass (Digitaria sanguinalis), woolly cupgrass (Eriochloa villosa), giant foxtail (Setaria faberii), Goosegrass (Eleusin indica), johnsongrass (Sorghum halepense), kochia (Kochia scoparia), lambsquarters (Chenopodium album), morningglory (Ipomoea coccinea), eastern black nightshade (Solanum ptycanthum), yellow nutsedge (Cyperus esculentus), pigweed (Amaranthus retroflexus), common ragweed (Ambrosia elation), soybean (Glycine max), common (oilseed) sunflower (Helianthus annuus), and velvetleaf (Abutilon theophrasti) were planted and treated preemergence with test chemicals formulated in a non-phytotoxic solvent mixture which included a surfactant. At the same time, plants selected from these crop and weed species and also winter barley (Hordeum vulgare), canarygrass (Phalaris minor), and chickweed (Stellaria media) were treated with postemergence applications of some of the test chemicals formulated in the same manner. Plants ranged in height from 2 to 18 cm (1- to 4-leaf stage) for postemergence treatments. […] At time of treatment, test pots were flooded to 3 cm above the soil surface, treated by application of test compounds directly to the paddy water, and then maintained at that water depth for the duration of the test. […] A dash (-) response means no test result."}, "blackgrass": {"test_system": "blackgrass", "assay": "Test C pre-/postemergence test", "type": "in vivo, Alopecurus myosuroides", "outline": "as §1"}, "velvetleaf [1]": {"test_system": "velvetleaf", "assay": "Test A pre-/postemergence greenhouse test", "type": "in vivo, Abutilon theophrasti", "settings": "for Velvetleaf plant response rating: 0 to 100 scale", "outline": "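Pre: directed soil spray on seeded loam/sand. Post: foliar spray, plants 2–10 cm, 1–2 leaf stage, applied concurrently. Vehicle: non-phytotoxic solvent + surfactant. Greenhouse ~10 d; visual injury rating vs untreated controls.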"}, "velvetleaf [2]": {"test_system": "velvetleaf", "assay": "Test C pre-/postemergence test", "type": "in vivo, Abutilon theophrasti", "settings": "Preemergence", "outline": "as §1"}, "barnyardgrass": {"test_system": "barnyardgrass", "assay": "Test C flooded paddy test", "type": "in vivo, Echinochloa crus-galli", "settings": "Flood", "outline": "as §2"}, "[3]": {"settings": "31 g ai/ha, scale 0 to 100 (0 no effect, 100 complete control)"}, "[4]": {"settings": "62 g ai/ha, Preemergence, scale 0 to 100"}, "[5]": {"settings": "Preemergence, 31 g ai/ha, scale 0 to 100 (0 no effect, 100 complete control)"}, "[6]": {"settings": "preemergence, 125 g ai/ha, scale 0 (no effect) to 100 (complete control)"}, "[7]": {"settings": "62 g ai/ha, scale 0 to 100, 0 no effect, 100 complete control, 13 to 15 days"}, "[8]": {"settings": "125 g ai/ha, scale 0 to 100, 0 no effect, 100 complete control, 13 to 15 days"}, "[9]": {"settings": "250 g ai/ha, scale 0 to 100, 0 no effect, 100 complete control, 13 to 15 days"}}, "data": [{"compound": "Cn1nc(C(F)(F)F)c(C[S+]([O-])c2cc(C(F)(F)F)cc[n+]2[O-])c1Cl", "note": "(racemic) [Compound 34]", "values": [{"measurement": "Johnsongrass plant response rating", "setting": "johnsongrass; 62 g ai/ha, scale 0 to 100", "result": 85}, {"measurement": "Plant response rating, Johnsongrass", "setting": "johnsongrass; [3]", "result": 85}, {"measurement": "Plant response rating (0 to 100), Johnsongrass", "setting": "johnsongrass; 250 g ai/ha", "result": 100}, {"measurement": "Soybean plant response rating", "setting": "soybean; 62 g ai/ha, scale 0 to 100", "result": 0}, {"measurement": "Plant response rating, Soybean", "setting": "soybean; [3]", "result": 0}, {"measurement": "Cocklebur plant response rating", "setting": "cocklebur; [4]", "result": 0}, {"measurement": "Plant response rating, Cocklebur", "setting": "cocklebur; [5]", "result": 0}, {"measurement": "Plant response rating (0 to 100), Cocklebur", "setting": "cocklebur; Preemergence, 250 g ai/ha", "result": 30}, {"measurement": "Cocklebur plant response rating", "setting": "cocklebur; [6]", "result": 0}, {"measurement": "Plant response rating, Ducksalad", "setting": "duck salad; [3]", "result": 0}, {"measurement": "Plant response rating, Ducksalad", "setting": "duck salad; [7]", "result": 75}, {"measurement": "Plant response rating, Ducksalad", "setting": "duck salad; [8]", "result": 80}, {"measurement": "Plant response rating, Ducksalad", "setting": "duck salad; [9]", "result": 85}, {"measurement": "Foxtail, Green plant response rating", "setting": "green foxtail; 62 g ai/ha, scale 0 to 100", "result": 50}, {"measurement": "Plant response rating, Foxtail, Green", "setting": "green foxtail; [3]", "result": 10}, {"measurement": "Plant response rating (0 to 100), Foxtail, Green", "setting": "green foxtail; 250 g ai/ha", "result": 100}, {"measurement": "Cupgrass, Woolly plant response rating", "setting": "woolly cupgrass; 62 g ai/ha, scale 0 to 100", "result": 35}, {"measurement": "Plant response rating, Cupgrass, Woolly", "setting": "woolly cupgrass; [3]", "result": 35}, {"measurement": "Plant response rating (0 to 100), Cupgrass, Woolly", "setting": "woolly cupgrass; 250 g ai/ha", "result": 75}, {"measurement": "Corn plant response rating", "setting": "corn; [4]", "result": 0}, {"measurement": "Plant response rating, Corn", "setting": "corn; [5]", "result": 0}, {"measurement": "Plant response rating (0 to 100), Corn", "setting": "corn; Preemergence, 250 g ai/ha", "result": 20}, {"measurement": "Corn plant response rating", "setting": "corn; [6]", "result": 5}, {"measurement": "Foxtail, Giant plant response rating", "setting": "giant foxtail; 62 g ai/ha, scale 0 to 100", "result": 20}, {"measurement": "Plant response rating, Foxtail, Giant", "setting": "giant foxtail; [3]", "result": 20}, {"measurement": "Plant response rating (0 to 100), Foxtail, Giant", "setting": "giant foxtail; 250 g ai/ha", "result": 50}, {"measurement": "Bromegrass, Downy plant response rating", "setting": "downy brome; [4]", "result": 0}, {"measurement": "Plant response rating, Bromegrass, Downy", "setting": "downy brome; [5]", "result": 0}, {"measurement": "Plant response rating (0 to 100), Bromegrass, Downy", "setting": "downy brome; Preemergence, 250 g ai/ha", "result": 20}, {"measurement": "Bromegrass, Downy plant response rating", "setting": "downy brome; [6]", "result": 20}, {"measurement": "Oat, Wild plant response rating", "setting": "wild oat; 62 g ai/ha, scale 0 to 100", "result": 40}, {"measurement": "Plant response rating, Oat, Wild", "setting": "wild oat; [3]", "result": 0}, {"measurement": "Ryegrass, Italian plant response rating", "setting": "Italian ryegrass; 62 g ai/ha, scale 0 to 100", "result": 0}, {"measurement": "Plant response rating, Ryegrass, Italian", "setting": "Italian ryegrass; [3]", "result": 0}, {"measurement": "Plant response rating, Galium", "setting": "catchweed bedstraw; [3]", "result": 0}, {"measurement": "Plant response rating (0 to 100), Galium", "setting": "catchweed bedstraw; 250 g ai/ha", "result": 100}, {"measurement": "Blackgrass plant response rating", "setting": "blackgrass; [4]", "result": 30}, {"measurement": "Plant response rating, Blackgrass", "setting": "blackgrass; [5]", "result": 30}, {"measurement": "Plant response rating (0 to 100), Blackgrass", "setting": "blackgrass; Preemergence, 250 g ai/ha", "result": 65}, {"measurement": "Blackgrass plant response rating", "setting": "blackgrass; [6]", "result": 50}, {"measurement": "Velvetleaf plant response rating", "setting": "velvetleaf [1]; Postemergence, 125 g ai/ha, 0 is no effect, 100 is complete control", "result": 30}, {"measurement": "Velvetleaf plant response rating", "setting": "velvetleaf [1]; Postemergence, 500 g ai/ha, 0 is no effect, 100 is complete control", "result": 60}, {"measurement": "Velvetleaf plant response rating", "setting": "velvetleaf [1]; Preemergence, 125 g ai/ha, 0 no effect, 100 complete control", "result": 30}, {"measurement": "Plant response rating, Velvetleaf", "setting": "velvetleaf [1]; Preemergence, 500 g ai/ha, 0 to 100 scale where 0 is no effect and 100 is complete control", "result": 60}, {"measurement": "Velvetleaf plant response rating", "setting": "velvetleaf [2]; 62 g ai/ha, scale 0 to 100", "result": 70}, {"measurement": "Plant response rating, Velvetleaf", "setting": "velvetleaf [2]; [3]", "result": 40}, {"measurement": "Plant response rating, Barnyardgrass", "setting": "barnyardgrass; [3]", "result": 0}, {"measurement": "Plant response rating, Barnyardgrass", "setting": "barnyardgrass; [7]", "result": 0}, {"measurement": "Plant response rating, Barnyardgrass", "setting": "barnyardgrass; [8]", "result": 0}, {"measurement": "Plant response rating, Barnyardgrass", "setting": "barnyardgrass; [9]", "result": 30}]}]}
